Measured values from ChEMBL document CHEMBL1268936, “Towards a systematic characterization of the antiprotozoal activity landscape of benzimidazole derivatives” (Bioorg Med Chem, 2010).

What was measured:
Giardia intestinalis = assay: Antiprotozoal activity against Giardia intestinalis; type: functional, organism-based; conditions: Giardia duodenalis
Trichomonas vaginalis = assay: Antiprotozoal activity against Trichomonas vaginalis; type: functional, organism-based

| IC50 (Giardia intestinalis) [nM] | IC50 (Trichomonas vaginalis) [nM] | SMILES |
| --- | --- | --- |
| 10500 | 200 | CCCSc1ccc2c(c1)nc(C(F)(F)F)n2C |
| 1410 | 2570 | CCCSc1ccc2nc(C(F)(F)F)n(C)c2c1 |
| 1100 | 29500 | Cn1c(C(F)(F)F)nc2cc(C(=O)c3ccccc3)ccc21 |
| 1290 | 10700 | Cn1c(C(F)(F)F)nc2ccc(C(=O)c3ccccc3)cc21 |
| 562 | 302 | FC(F)(F)C(F)(F)c1nc2cc(Cl)c(Cl)cc2[nH]1 |
| 240 | 575 | O=[N+]([O-])c1cc2nc(C(F)(F)F)[nH]c2cc1[N+](=O)[O-] |
| 22.9 | 10000 | FC(F)(F)C(F)(F)c1nc2c(Br)c(Br)c(Br)c(Br)c2[nH]1 |
| 56.2 | 2 | FC(F)(F)c1nc2c(Br)c(Br)c(Br)c(Br)c2[nH]1 |
| 120 | 219 | FC(F)(F)c1nc2cc(Br)c(Br)cc2[nH]1 |
